Results from ChEMBL document CHEMBL5034014, “Melanocortin 1 Receptor Agonists Based on a Bivalent, Bicyclic Peptide Framework” (J Med Chem, 2021).
Bridge positions count the residues as written; N and C are the ends. Square brackets hold non-standard residues; d marks the D form. Peptide text beside a SMILES is read from it. NMeW = CN[C@@H](Cc1c[nH]c2ccccc12)C(=O)O; NMeR = CN[C@@H](CCCNC(=N)N)C(=O)O

Key:
[1] = molecular target: T1, Melanocyte-stimulating hormone receptor (Homo sapiens, UniProt Q01726); assay: Displacement of [125I]-NDP-alpha-MSH from human MC1R expressed in HEK2936E cell membrane measured after 16-23 hrs by 1450 microbeta trilux scintillation proximity assay; assay type: cell membranes
T1 sequence (Q01726 whole entry): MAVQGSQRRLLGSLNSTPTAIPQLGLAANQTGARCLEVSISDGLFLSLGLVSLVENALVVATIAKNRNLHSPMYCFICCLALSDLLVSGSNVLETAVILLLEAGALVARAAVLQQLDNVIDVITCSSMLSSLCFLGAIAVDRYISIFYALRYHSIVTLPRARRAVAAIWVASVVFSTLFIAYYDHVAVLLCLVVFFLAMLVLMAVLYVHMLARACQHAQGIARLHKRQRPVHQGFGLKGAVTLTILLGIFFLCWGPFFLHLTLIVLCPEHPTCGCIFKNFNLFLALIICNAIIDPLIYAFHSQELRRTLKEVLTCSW

[2] = molecular target: T2, Melanocortin receptor 4 (Homo sapiens, UniProt P32245); assay: Agonist activity at human melanocortin receptor 4 expressed in human T-REx-293 cells using high doxycycline assessed as stimulation of intracellular cAMP accumulation incubated for 45 mins by LANCE cAMP assay; assay type: functional
T2 sequence (P32245 whole entry): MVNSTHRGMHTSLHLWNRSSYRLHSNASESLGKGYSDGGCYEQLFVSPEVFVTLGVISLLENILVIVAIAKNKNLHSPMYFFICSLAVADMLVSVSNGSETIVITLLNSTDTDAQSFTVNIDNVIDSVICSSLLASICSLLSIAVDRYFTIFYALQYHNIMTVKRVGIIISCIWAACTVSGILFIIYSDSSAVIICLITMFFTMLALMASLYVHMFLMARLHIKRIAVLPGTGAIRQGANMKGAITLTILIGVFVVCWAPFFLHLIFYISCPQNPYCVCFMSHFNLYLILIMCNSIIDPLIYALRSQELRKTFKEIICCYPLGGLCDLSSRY

[3] = molecular target: Melanocortin receptor 5 (Homo sapiens, UniProt P33032); assay: Displacement of [125I]-NDP-alpha-MSH from human MC5R expressed in HEK2936E cell membrane measured after 16-23 hrs by 1450 microbeta trilux scintillation proximity assay; assay type: cell membranes
Chain of Melanocortin receptor 5 (P33032 whole entry): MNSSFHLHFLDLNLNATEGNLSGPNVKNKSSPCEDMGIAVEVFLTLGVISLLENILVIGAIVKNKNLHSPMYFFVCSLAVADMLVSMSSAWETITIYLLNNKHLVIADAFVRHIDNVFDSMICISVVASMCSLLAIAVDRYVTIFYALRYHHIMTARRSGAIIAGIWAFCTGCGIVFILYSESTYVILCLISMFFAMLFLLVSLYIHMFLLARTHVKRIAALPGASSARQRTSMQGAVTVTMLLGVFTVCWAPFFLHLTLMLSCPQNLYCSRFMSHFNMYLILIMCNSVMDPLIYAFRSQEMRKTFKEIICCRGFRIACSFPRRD

[4] = molecular target: T2, Melanocortin receptor 4; assay: Agonist activity at human melanocortin receptor 4 expressed in human T-REx-293 cells using low doxycycline assessed as stimulation of intracellular cAMP accumulation incubated for 45 mins by LANCE cAMP assay; assay type: functional, cell-based
[5] = molecular target: T2, Melanocortin receptor 4; assay: Displacement of [125I]-NDP-alpha-MSH from human MC4R expressed in HEK2936E cell membrane measured after 16-23 hrs by 1450 microbeta trilux scintillation proximity assay; assay type: cell membranes
[6] = molecular target: T1, Melanocyte-stimulating hormone receptor; assay: Agonist activity at human melanocortin receptor 1 expressed in human T-Rex-293 cells assessed as stimulation of intracellular cAMP accumulation incubated for 45 mins by LANCE cAMP assay; assay type: functional, cell-based
[7] = molecular target: T3, Melanocortin receptor 3 (Homo sapiens, UniProt P41968); assay: Displacement of [125I]-NDP-alpha-MSH from human MC3R expressed in HEK2936E cell membrane measured after 16-23 hrs by 1450 microbeta trilux scintillation proximity assay; assay type: cell membranes
T3 sequence (P41968 whole entry): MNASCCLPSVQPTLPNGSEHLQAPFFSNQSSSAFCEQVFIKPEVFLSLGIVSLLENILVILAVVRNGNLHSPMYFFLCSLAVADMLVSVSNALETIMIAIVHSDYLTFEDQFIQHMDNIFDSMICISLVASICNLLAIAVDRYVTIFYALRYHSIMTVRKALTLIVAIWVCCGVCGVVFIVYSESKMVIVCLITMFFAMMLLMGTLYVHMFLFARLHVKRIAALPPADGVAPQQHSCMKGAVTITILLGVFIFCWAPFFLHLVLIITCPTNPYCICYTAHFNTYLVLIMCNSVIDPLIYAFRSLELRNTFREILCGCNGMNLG

[8] = molecular target: T3, Melanocortin receptor 3; assay: Agonist activity at human melanocortin receptor 3 expressed in human T-REx-293 cells assessed as stimulation of intracellular cAMP accumulation incubated for 45 mins by LANCE cAMP assay; assay type: functional, cell-based
[9] = species on record: Homo sapiens; assay: Selectivity index, […] for displacement of [125I]-NDP-alpha-MSH from human MC1R […] for displacement of [125I]-NDP-alpha-MSH from human MC4R by competitive radioligand binding assay
[10] = species on record: Homo sapiens; assay: Selectivity index, […] for displacement of [125I]-NDP-alpha-MSH from human MC1R […] for displacement of [125I]-NDP-alpha-MSH from human MC3R by competitive radioligand binding assay
[11] = species on record: Homo sapiens; assay: Selectivity index, […] for displacement of [125I]-NDP-alpha-MSH from human MC1R […] for displacement of [125I]-NDP-alpha-MSH from human MC5R by competitive radioligand binding assay

SMILES | Ki [1] [nM] | EC50 [2] [nM] | IC50 [3] [nM] | EC50 [4] [nM] | Ki [5] [nM] | EC50 [6] [nM] | Ki [7] [nM] | EC50 [8] [nM] | Ratio [9] | Ratio [10] | Ratio [11]
CN1C(=O)[C@@H](Cc2ccccc2)NC(=O)[C@H](Cc2c[nH]cn2)NC(=O)CNC(=O)[C@@H]2CSSC[C@H](NC(=O)[C@H](CCCNC(=N)N)NC(=O)[C@@H](CC(=O)O)NC(=O)[C@H](Cc3c[nH]c4ccccc34)NC(=O)[C@@H]1CCCNC(=N)N)C(=O)N[C@@H](Cc1c[nH]cn1)C(=O)N[C@H](Cc1ccccc1)C(=O)N(C)[C@@H](CCCNC(=N)N)C(=O)N(C)[C@@H](Cc1c[nH]c3ccccc13)C(=O)N[C@@H](CCCNC(=N)N)C(=O)N2 | 4.9 | 10.5 | 1510 | 490 | 158 | 0.813 | 148 | 24 |  |  | 
CC(=O)N[C@H]1CSSC[C@@H](C(N)=O)NC(=O)[C@H](CCCNC(=N)N)NC(=O)[C@H](Cc2c[nH]c3ccccc23)N(C)C(=O)[C@H](CCCNC(=N)N)N(C)C(=O)[C@H](Cc2ccccc2)NC(=O)[C@H](Cc2c[nH]cn2)NC1=O (Ac-CHF[NMeR][NMeW]RC-NH2; disulfide 1-7) | 56.2 | 63.1 | 10000 | 3630 | 2040 | 5.5 | 3160 | 398 |  |  | 
C[C@@H]1NC(=O)[C@H](Cc2c[nH]c3ccccc23)NC(=O)[C@H](CCCNC(=N)N)NC(=O)[C@@H](Cc2ccccc2)NC(=O)[C@H](Cc2c[nH]cn2)NC(=O)[C@@H]2CSSC[C@H](NC1=O)C(=O)N[C@@H]([C@@H](C)O)C(=O)N[C@@H](Cc1c[nH]cn1)C(=O)N[C@H](Cc1ccccc1)C(=O)N(C)[C@@H](CCCNC(=N)N)C(=O)N[C@@H](Cc1c[nH]c3ccccc13)C(=O)N1CCC[C@H]1C(=O)N[C@@H](Cc1ccccc1)C(=O)N2 | 3.98 | 0.537 | 513 | 6.76 | 36.3 | 0.692 | 302 | 6.61 |  |  | 
CC[C@H](C)[C@@H]1NC(=O)[C@@H]2CCCN2C(=O)[C@H](Cc2c[nH]c3ccccc23)NC(=O)[C@H](CCCNC(=N)N)N(C)C(=O)[C@@H](Cc2ccccc2)NC(=O)[C@H](Cc2c[nH]cn2)NC(=O)[C@H]([C@@H](C)O)NC(=O)[C@@H]2CSSC[C@H](NC1=O)C(=O)N[C@@H](Cc1c[nH]cn1)C(=O)N[C@H](Cc1ccccc1)C(=O)N[C@@H](CCCNC(=N)N)C(=O)N[C@@H](C)C(=O)N[C@@H](CCCNC(=N)N)C(=O)N2 | 1.55 | 1.2 | 1780 | 28.2 | 50.1 | 0.427 | 891 | 16.2 |  |  | 
CC[C@H](C)[C@@H]1NC(=O)[C@@H]2CCCN2C(=O)[C@H](Cc2c[nH]c3ccccc23)NC(=O)[C@H](CCCNC(=N)N)N(C)C(=O)[C@@H](Cc2ccccc2)NC(=O)[C@H](Cc2c[nH]cn2)NC(=O)[C@H]([C@@H](C)O)NC(=O)[C@@H]2CSSC[C@H](NC1=O)C(=O)N[C@@H](Cc1c[nH]cn1)C(=O)N[C@H](Cc1ccccc1)C(=O)N(C)[C@@H](CCCNC(=N)N)C(=O)N(C)[C@@H](Cc1c[nH]c3ccccc13)C(=O)N[C@@H](CCCNC(=N)N)C(=O)N2 | 0.0692 | 0.977 | 166 | 26.3 | 30.2 | < 0.0501 | 51.3 | 1.23 | 30 | 30 | 3000

Continued by falling Ki [1], values first:

Ki [1] [nM] | EC50 [2] [nM] | IC50 [3] [nM] | EC50 [4] [nM] | Ki [5] [nM] | EC50 [6] [nM] | Ki [7] [nM] | EC50 [8] [nM] | Ratio [9] | Ratio [10] | Ratio [11] | SMILES
339 | 3.09 | 1000 | 46.8 | 617 | 64.6 | > 1000 | 282 |  |  |  | CC[C@H](C)[C@@H]1NC(=O)[C@@H]2CCCN2C(=O)[C@H](Cc2c[nH]c3ccccc23)N(C)C(=O)[C@H](CCCNC(=N)N)NC(=O)[C@@H](Cc2ccccc2)NC(=O)[C@H](Cc2cnc[nH]2)NC(=O)[C@H]([C@@H](C)O)NC(=O)[C@@H]2CSSC[C@H](NC1=O)C(=O)N[C@@H](Cc1ccccc1)C(=O)N1CCC[C@H]1C(=O)N[C@@H](CC(=O)O)C(=O)NCC(=O)N[C@@H](CCCNC(=N)N)C(=O)N2 (cyclo(CFPDGRCTH[dF]R[NMeW]PI); disulfide 1-7)
195 | 2.57 | 11200 | 60.3 | 347 | 8.71 | 3980 | 39.8 |  |  |  | CC[C@H](C)[C@@H]1NC(=O)[C@@H]2CCCN2C(=O)[C@H](Cc2c[nH]c3ccccc23)NC(=O)[C@H](CCCNC(=N)N)N(C)C(=O)[C@@H](Cc2ccccc2)NC(=O)[C@H](Cc2c[nH]cn2)NC(=O)[C@H]([C@@H](C)O)NC(=O)[C@@H](NC(C)=O)CSSC[C@@H](C(N)=O)NC1=O
1.29 | 22.9 | 3090 | 398 | 589 | 0.141 | 1740 | 72.4 |  |  |  | CC[C@H](C)[C@@H]1NC(=O)[C@@H]2CCCN2C(=O)[C@H](Cc2c[nH]c3ccccc23)NC(=O)[C@H](CCC(=O)O)NC(=O)[C@@H](Cc2ccccc2)NC(=O)[C@H](Cc2c[nH]cn2)NC(=O)[C@H]([C@@H](C)O)NC(=O)[C@@H]2CSSC[C@H](NC1=O)C(=O)N[C@@H](Cc1c[nH]cn1)C(=O)N[C@H](Cc1ccccc1)C(=O)N(C)[C@@H](CCCNC(=N)N)C(=O)N(C)[C@@H](Cc1c[nH]c3ccccc13)C(=O)N[C@@H](CCCNC(=N)N)C(=O)N2
0.912 | 0.178 | 200 | 2.04 | 13.5 | 0.0562 | 85.1 | 1.45 |  |  |  | CC[C@H](C)[C@@H]1NC(=O)[C@@H]2CCCN2C(=O)[C@H](Cc2c[nH]c3ccccc23)NC(=O)[C@H](CCCNC(=N)N)N(C)C(=O)[C@@H](Cc2ccccc2)NC(=O)[C@H](Cc2c[nH]cn2)NC(=O)[C@H]([C@@H](C)O)NC(=O)[C@@H]2CSSC[C@H](NC1=O)C(=O)N[C@@H](Cc1c[nH]cn1)C(=O)N[C@H](Cc1ccccc1)C(=O)N[C@@H](CCCNC(=N)N)C(=O)N[C@@H](Cc1c[nH]c3ccccc13)C(=O)N[C@@H](C)C(=O)N2
0.794 | 1.29 | 2000 | 22.9 | 138 | 0.11 | 479 | 11.2 |  |  |  | CC[C@H](C)[C@@H]1NC(=O)[C@@H]2CCCN2C(=O)[C@H](Cc2c[nH]c3ccccc23)NC(=O)[C@H](CCCNC(=N)N)N(C)C(=O)[C@@H](Cc2ccccc2)NC(=O)[C@H](Cc2c[nH]cn2)NC(=O)[C@H](CC(=O)O)NC(=O)[C@@H]2CSSC[C@H](NC1=O)C(=O)N[C@@H](Cc1c[nH]cn1)C(=O)N[C@H](Cc1ccccc1)C(=O)N(C)[C@@H](CCCNC(=N)N)C(=O)N(C)[C@@H](Cc1c[nH]c3ccccc13)C(=O)N[C@@H](CCCNC(=N)N)C(=O)N2
0.708 | 4.27 | 1230 | 85.1 | 355 | 0.0646 | 891 | 18.2 |  |  |  | CC[C@H](C)[C@@H]1NC(=O)[C@@H]2CCCN2C(=O)[C@H](Cc2c[nH]c3ccccc23)NC(=O)[C@H](CCCNC(=N)N)N(C)C(=O)[C@@H](Cc2ccccc2)NC(=O)[C@H](Cc2c[nH]cn2)NC(=O)[C@H](CC(=O)O)NC(=O)[C@@H]2CSSC[C@H](NC1=O)C(=O)N[C@@H](Cc1c[nH]cn1)C(=O)N[C@H](Cc1ccccc1)C(=O)N(C)[C@@H](CCCNC(=N)N)C(=O)N(C)[C@@H](Cc1c[nH]c3ccccc13)C(=O)N[C@@H](Cc1ccc(O)cc1)C(=O)N2
0.148 | 2.75 | 380 | 45.7 | 64.6 | 0.0832 | 105 | 3.55 |  |  |  | CC[C@H](C)[C@@H]1NC(=O)[C@@H]2CCCN2C(=O)[C@H](Cc2c[nH]c3ccccc23)NC(=O)[C@H](CCCNC(=N)N)N(C)C(=O)[C@@H](Cc2ccccc2)NC(=O)[C@H](Cc2c[nH]cn2)NC(=O)[C@H](CCC(=O)O)NC(=O)[C@@H]2CSSC[C@H](NC1=O)C(=O)N[C@@H](Cc1c[nH]cn1)C(=O)N[C@H](Cc1ccccc1)C(=O)N(C)[C@@H](CCCNC(=N)N)C(=O)N(C)[C@@H](Cc1c[nH]c3ccccc13)C(=O)N[C@@H](CCCNC(=N)N)C(=O)N2
